Results taken from US6989384B2, “Antipicornaviral compounds and compositions, their pharmaceutical uses, and materials for their synthesis” (Agouron Pharmaceuticals, Inc., priority 2000, dated 2006).

molecular target: T1, rhinovirus 3C protease from HRV serotype-14 (Human rhinovirus 14, UniProt P03303); test: Inhibition of rhinovirus 3C protease activity (FRET assay), HRV-14; format: biochemical; settings: HRV-14 3C protease; progress curves, enzyme start
T1 construct: Recombinant rhinovirus 3C proteases; made in house
T1 sequence (P03303 1538-1719): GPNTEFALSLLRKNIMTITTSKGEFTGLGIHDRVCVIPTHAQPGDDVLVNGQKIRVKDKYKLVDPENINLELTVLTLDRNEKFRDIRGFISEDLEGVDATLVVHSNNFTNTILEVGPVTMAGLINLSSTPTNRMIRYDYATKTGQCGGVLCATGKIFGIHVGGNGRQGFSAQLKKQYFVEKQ
Description: Stock solutions (50 mM, in DMSO) of various compounds were prepared; dilutions were in the same solvent. Recombinant rhinovirus 3C proteases (see Birch et al., “Purification of recombinant human rhinovirus 14 3C protease expressed in Escherichia coli,” Protein Expr. Pur. 1995, 6(5), 609–618) from serotypes 14, 16, and 2 were prepared by the following standard chromatographic procedures: (1) ion exchange using Q Sepharose Fast Flow from Pharmacia; (2) affinity chromatography using Affi-Gel Blue from Biorad; and (3) sizing using Sephadex G-100 from Pharmacia. Each assay sample contained 2% DMSO, 50 mM tris pH 7.6, 1 mM EDTA, a test compound at the indicated concentration, approximately 1 μM substrate, and 50–100 nM protease. The kobs/I values were obtained from reactions initiated by addition of enzyme rather than substrate. RVP activity was measured in the fluorescence resonance energy transfer assay. The substrate was (N-terminal) DABCYL-(Gly-Arg-Ala-Val-Phe-Gln-Gly-Pro-Val-Gly)-EDANS. In the uncleaved peptide, the EDANS fluorescence was quenched by the proximal DABCYL group. When the peptide was cleaved, the quenching was relieved, and activity was measured as an increase in fluorescence signal. In the Table, unless otherwise indicated, all data are for rhinovirus 3C protease from HRV serotype-14 (produced from the infectious cDNA clone constructed by Dr. Robert Rueckert, Institute for Molecular Virology, University of Wisconsin, Madison, Wis.). The data in the column designated kobs/[I] were measured from progress curves in enzyme start experiments.

Protease Inhibition kobs/I	Compound
673 M⁻¹ s⁻¹	CCOC(=O)/C=C/[C@H](C[C@@H]1CCNC1=O)NC(=O)c1cc2ccccc2cc1NC(C)=O [Compound 22, 4S-[(3-acetylamino-naphthalene-2-carbonyl)-amino]-5-(2-oxo-pyrrolidin-3S-yl)-pent-2-enoic acid ethyl ester]

same assay, conditions: HRV-14 3C protease; progress curves, enzyme start; read-out: Protease Inhibition kobs/I

kinact/KI	Compound
1830 M⁻¹ s⁻¹	CCOC(=O)/C=C/[C@H](C[C@@H]1CCNC1=O)NC(=O)c1cc2cc(OC)c(OCc3ccccc3)cc2[nH]1 [Compound 46, 4S-[(6-Benzyloxy-5-methoxy-1H-indole-2-carbonyl)-amino]-5-(2-oxo-pyrrolidin-3S-yl)-pent-2-enoic acid ethyl ester]
77 M⁻¹ s⁻¹	CCOC(=O)/C=C/[C@H](C[C@@H]1CCNC1=O)NC(=O)COc1cccc(OC)c1 [Compound 60, 4S-[2-(3-methoxy-phenoxy)-acetylamino]-5-(2-oxo-pyrrolidin-3S-yl)-pent-2-enoic acid ethyl ester]
283 M⁻¹ s⁻¹	CCOC(=O)/C=C/[C@H](C[C@@H]1CCNC1=O)NC(=O)c1cc2ccccc2[nH]1 [Compound 47, 4S-[(1H-Indole-2-carbonyl)-amino]-5-(2-oxo-pyrrolidin-3S-yl)-pent-2-enoic acid ethyl ester]
219 M⁻¹ s⁻¹	CCOC(=O)/C=C/[C@H](C[C@@H]1CCNC1=O)NC(=O)c1cc2cc(Br)ccc2o1 [Compound 14, 4S-[(5-bromo-benzofuran-2-carbonyl)-amino]-5-(2-oxo-pyrrolidin-3S-yl)-pent-2-enoic acid ethyl ester]
315 M⁻¹ s⁻¹	CCOC(=O)/C=C/[C@H](C[C@@H]1CCNC1=O)NC(=O)/C=C/c1cccc(O)c1 [Compound 17, 4S-[3-(3-hydroxy-phenyl)-acryloylamino]-5-(2-oxo-pyrrolidin-3S-yl)-pent-2-enoic acid ethyl ester]
7 M⁻¹ s⁻¹	CCOC(=O)/C=C/[C@H](C[C@@H]1CCNC1=O)NC(=O)Cc1cccc(Cl)c1 [Compound 63, 4S-[2-(3-chloro-phenyl)-acetylamino]-5-(2-oxo-pyrrolidin-3S-yl)-pent-2-enoic acid ethyl ester]
570 M⁻¹ s⁻¹	CCOC(=O)/C=C/[C@H](C[C@@H]1CCNC1=O)NC(=O)c1ccc2cc(O)ccc2c1 [Compound 65, 4S-[(6-hydroxy-naphthalene-2-carbonyl)-amino]-5-(2-oxo-pyrrolidin-3S-yl)-pent-2-enoic acid ethyl ester]
258 M⁻¹ s⁻¹	CCOC(=O)/C=C/[C@H](C[C@@H]1CCNC1=O)NC(=O)c1ccc(C(=O)OC)cc1 [Compound 4, N-[3-ethoxycarbonyl-1S-(2-oxo-pyrrolidin-3R-ylmethyl)-ally]-terephthalamic acid methyl ester]
225 M⁻¹ s⁻¹	CCOC(=O)/C=C/[C@H](C[C@@H]1CCNC1=O)NC(=O)/C=C/C(=O)Nc1c(C)cc(C)cc1C [Compound 50, 5-(2-Oxo-pyrrolidin-3S-yl)-4S-[3-(2,4,6-trimethylphenylcarbamoyl)-acryloylamino]-pent-2-enoic acid ethyl ester]
142 M⁻¹ s⁻¹	CCOC(=O)/C=C/[C@H](C[C@@H]1CCNC1=O)NC(=O)c1cc2ccccc2cc1N [Compound 69, 4S-[(3-amino-naphthalene-2-carbonyl)-amino]-5-(2-oxo-pyrrolidin-3S-yl)-pent-2-enoic acid ethyl ester]

The remaining lines, values behind:

Compound	kinact/KI
CCOC(=O)/C=C/[C@H](C[C@@H]1CCNC1=O)NC(=O)c1ccc2cc(OC)c(OC)cc2c1 [Compound 18, 4S-[(6,7-dimethoxy-naphthalene-2-carbonyl)-amino]-5-(2-oxo-pyrrolidin-3S-yl)-pent-2-enoic acid ethyl ester]	262 M⁻¹ s⁻¹
CCOC(=O)/C=C/[C@H](C[C@@H]1CCNC1=O)NC(=O)c1cncc(Br)c1 [Compound 6, 4S-[(5-bromo-pyridine-3-carbonyl)-amino]-5-(2-oxo-pyrrolidin-3S-yl)-pent-2-enoic acid ethyl ester]	79 M⁻¹ s⁻¹
CCOC(=O)/C=C/[C@H](C[C@@H]1CCNC1=O)NC(=O)c1cc2cc(Cl)ccc2[nH]1 [Compound 40, 4S-[(5-Chloro-1H-indole-2-carbonyl)-amino]-5-(2-oxo-pyrrolidin-3S-yl)-pent-2-enoic acid ethyl ester]	1270 M⁻¹ s⁻¹
CCOC(=O)/C=C/[C@H](C[C@@H]1CCNC1=O)NC(=O)c1cc2cc(F)ccc2[nH]1 [Compound 39, 4S-[(5-Fluoro-1H-indole-2-carbonyl)-amino]-5-(2-oxo-pyrrolidin-3S-yl)-pent-2-enoic acid ethyl ester]	615 M⁻¹ s⁻¹
CCOC(=O)/C=C/[C@H](C[C@@H]1CCNC1=O)NC(=O)c1nc2ccccc2[nH]1 [Compound 10, 4-[(1H-benzoimidazole-2-carbonyl)-amino]-5-(2-oxo-pyrrolidin-3S-yl)-pent-2-enoic acid ethyl ester]	55 M⁻¹ s⁻¹
CCOC(=O)/C=C/[C@H](C[C@@H]1CCNC1=O)NC(=O)C1CSC(c2ccccc2)N1C(C)=O (stereo partly drawn) [Compound 13, 4S-[(3-acetyl-2-phenyl-thiazolidine-4-carbonyl)-amino]-5-(2-oxo-pyrrolidin-3S-yl)-pent-2-enoic acid ethyl ester]	169 M⁻¹ s⁻¹
CCOC(=O)/C=C/[C@H](C[C@@H]1CCNC1=O)NC(=O)/C=C/c1cc(Br)ccc1Br [Compound 64, 4S-[3-(2,5-dibromo-phenyl)-acryloylamino]-5-(2-oxo-pyrrolidin-3S-yl)-pent-2-enoic acid ethyl ester]	6850 M⁻¹ s⁻¹
CCOC(=O)/C=C/[C@H](C[C@@H]1CCNC1=O)NC(=O)c1nc2ccccc2nc1O [Compound 7, 4S-[(3-hydroxyquinoxaline-2-carbonyl)-amino]-5-(2-oxopyrrolidin-3S-yl)-pent-2-enoic acid ethyl ester]	36 M⁻¹ s⁻¹
CCOC(=O)/C=C/[C@H](C[C@H]1CCNC1=O)NC(=O)c1ccc2ccccc2c1 [Compound 2, 4S-[(naphthalene-2-carbonyl)-amino]-5-(2-oxo-pyrrolidin-3-R-yl)-pent-2-enoic acid ethyl ester]	400 M⁻¹ s⁻¹
CCOC(=O)/C=C/[C@H](C[C@@H]1CCNC1=O)NC(=O)/C=C/c1ccc(OC)cc1 [Compound 16, 4S-[3-(methoxy-phenyl)-acryloylamino]-5-(2-oxo-pyrrolidin-3S-yl)-pent-2-enoic acid ethyl ester]	664 M⁻¹ s⁻¹
CCOC(=O)/C=C/[C@H](C[C@@H]1CCNC1=O)NC(=O)/C=C/c1ccc(Cl)cc1 [Compound 11, 4S-[3-(4-chloro-phenyl)-acryloylamino]-5-(2-oxo-pyrrolidin-3S-yl)-pent-2-enoic acid ethyl ester]	750 M⁻¹ s⁻¹
CCOC(=O)/C=C/[C@H](C[C@@H]1CCNC1=O)NC(=O)COc1cccc(Cl)c1 [Compound 61, 4S-[2-(3-chloro-phenoxy)-acetylamino]-5-(2-oxo-pyrrolidin-35-yl)-pent-2-enoic acid ethyl ester]	103 M⁻¹ s⁻¹
CCOC(=O)/C=C/[C@H](C[C@@H]1CCNC1=O)NC(=O)c1cc2cccc([N+](=O)[O-])c2[nH]1 [Compound 42, 4S-[(7-Nitro-1H-indole-2-carbonyl)-amino]-5-(2-oxo-pyrrolidin-3S-yl)-pent-2-enoic acid ethyl ester]	272 M⁻¹ s⁻¹
CCOC(=O)/C=C/[C@H](C[C@@H]1CCNC1=O)NC(=O)c1cc2ccccc2cc1NC(C)=O [Compound 22, 4S-[(3-acetylamino-naphthalene-2-carbonyl)-amino]-5-(2-oxo-pyrrolidin-3S-yl)-pent-2-enoic acid ethyl ester]	581 M⁻¹ s⁻¹
CCOC(=O)/C=C/[C@H](C[C@@H]1CCNC1=O)NC(=O)Nc1cc(C)cc(C)c1 [Compound 58, 4S-[3-(3,5-dimethyl-phenyl)-ureido]-5-(2-oxo-pyrrolidin-3S-yl)-pent-2-enoic acid ethyl ester]	185 M⁻¹ s⁻¹
CCOC(=O)/C=C/[C@H](C[C@@H]1CCNC1=O)NC(=O)/C=C/c1ccc(OC)c(OC)c1 [Compound 5, 4S-[3-(3,4-dimethoxy-phenyl)-acryloylamino]-5-(2-oxo-pyrrolidin-3S-yl)-pent-2-enoic acid ethyl ester]	173 M⁻¹ s⁻¹
CCOC(=O)/C=C/[C@H](C[C@@H]1CCNC1=O)NC(=O)Nc1ccccc1Oc1ccccc1 [Compound 55, 5-(2-oxo-pyrrolidin-3S-yl)-4S-[3-(2-phenoxy-phenyl)-ureido]-pent-2-enoic acid ethyl ester]	200 M⁻¹ s⁻¹
